# Results published in patent US20080319000A1, “Use of 3,1IB-Cis-Dihydrotetrabenazine for the Treatment of Symptoms of Huntingtons Disease” (CAMBRIDGE LABORATORIES (IRELAND) LIMITED, priority 2005, published 2008).
# Assays:
# [1] = tested on: B6CBA-Tg(HDexon1)62Gpb/1J transgenic (R6/2) mice; assay: Locomotor activity test in transgenic mice model of Huntington's disease; type: in vivo; conditions: average recorded results, 5 mg/kg i.p.
# Protocol: B6CBA-Tg(HDexon1)62Gpb/1J transgenic (R6/2) mice are transgenic for the 5-end of the human HD gene carrying (CAG) 115-(CAG) 150 repeat expansions. […] These symptoms appear between 6 and 8 weeks of age. […] The mice had access to commercial mouse chow (mouse/rate breeding, ref. 9341 Provimi Kliba, Switzerland) and tap water. […] The mice were placed in a transparent plastic box of floor dimensions 30×30 cm in a room with low light intensity (maximum 20 lux). Locomotor activity was determined during a 10 minute period using a video image analyzer (Videotrack, View Point, Lyon, France). The number, distance and average speed of ambulatory movements were measured. The mice were returned to their home cages after testing. Group 1: hemizygote Transgenic B6CBA-Tg(HDexon 1)62Gpb/1J mice treated with vehicle i.p. once a day for 4 days (from day 0 to day 3) Group 2: hemizygote Transgenic B6CBA-Tg(HDexon 1)62Gpb/1J mice treated with 5 mg/kg i.p. of test item once a day for 4 days (from day 0 to day 3) […] • Test item administration • Simplified Irwin test, 40 min after administration • Locomotor activity test, immediately after the simplified Irwin test Simplified Irwin scores were analysed using non-parametric Mann-Whitney's U test. Locomotor activity data were analysed using Dunnett's t-test. Rotarod scores were analysed using the non-parametric Mann-Whitney's U-test. Statistical analyses were performed using the software Statview SE^+graphics software, Brain Power.
# [2] = target: T1, monoamine oxidase isoform B (Homo sapiens, UniProt P27338); assay: Monoamine oxidase B inhibition; type: biochemical
# T1 sequence (P27338 1-520): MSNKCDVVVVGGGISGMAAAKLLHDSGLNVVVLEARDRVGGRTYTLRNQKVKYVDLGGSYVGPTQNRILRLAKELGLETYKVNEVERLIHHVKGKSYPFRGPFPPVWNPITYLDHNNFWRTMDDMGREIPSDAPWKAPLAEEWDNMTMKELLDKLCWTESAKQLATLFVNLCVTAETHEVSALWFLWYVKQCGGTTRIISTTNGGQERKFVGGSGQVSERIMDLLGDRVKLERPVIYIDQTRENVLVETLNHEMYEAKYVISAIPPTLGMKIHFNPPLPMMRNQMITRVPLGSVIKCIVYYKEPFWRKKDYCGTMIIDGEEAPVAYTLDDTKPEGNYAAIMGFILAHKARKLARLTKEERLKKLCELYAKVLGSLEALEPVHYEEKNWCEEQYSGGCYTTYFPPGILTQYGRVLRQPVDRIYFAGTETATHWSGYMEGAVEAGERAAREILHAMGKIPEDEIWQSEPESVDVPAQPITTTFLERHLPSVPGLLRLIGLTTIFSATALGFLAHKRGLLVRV
# [3] = tested on: B6CBA-Tg(HDexon1)62Gpb/1J transgenic (R6/2) mice; assay: Rotarod test in transgenic mice model of Huntington's disease; type: in vivo; conditions: 5 mg/kg i.p. Day 0 to Day 3
# Protocol: B6CBA-Tg(HDexon1)62Gpb/1J transgenic (R6/2) mice are transgenic for the 5-end of the human HD gene carrying (CAG) 115-(CAG) 150 repeat expansions. […] These symptoms appear between 6 and 8 weeks of age. Female B6CBa-Tg(HDexon1)62Gpb/1J transgenic mice (Jackson Laboratory, USA) were housed 5 per cage in an enriched environment under a light-dark cycle of 12 h-12 h (light on at 7.00 am, off at 7.00 pm) at a room temperature of 21±2° C., with 50±15% humidity. The mice had access to commercial mouse chow (mouse/rate breeding, ref. 9341 Provimi Kliba, Switzerland) and tap water. […] Two consecutive days before the first administration, animals were trained to use the rotarod: they were placed on an accelerating rotarod (Ugo Basile, Italy) for a maximum time of 450 seconds. They went through 2 training sessions starting with 4 rpm for 300 seconds, then staying at 40 rpm for 150 seconds. The two training sessions were given at 1 hour intervals. On the days of testing, each animal was subjected to one trial under the conditions described above. Each trial was terminated when the mouse fell or when it had stayed on the rotarod for 450 seconds. The mice were returned to their home cages after testing. Group 1: hemizygote Transgenic B6CBA-Tg(HDexon 1)62Gpb/1J mice treated with vehicle i.p. once a day for 4 days (from day 0 to day 3) Group 2: hemizygote Transgenic B6CBA-Tg(HDexon 1)62Gpb/1J mice treated with 5 mg/kg i.p. of test item once a day for 4 days (from day 0 to day 3) […] • Test item administration • Simplified Irwin test, 40 minutes after administration • Rotarod test, immediately after the simplified Irwin test • Test item administration • Simplified Irwin test, 40 min after administration • Rotarod test, immediately after simplified #Irwin test Simplified Irwin scores were analysed using non-parametric Mann-Whitney's U test. Locomotor activity data were analysed using Dunnett's t-test. Rotarod scores were analysed using the non-parametric Mann-Whitney's U-test. Statistical analyses were performed using the software Statview SE^+graphics software, Brain Power.
# [4] = DAY 0, 40 mn after administration
# [5] = DAY 2, 40 mn after administration
compound,measurement,setting,value
"COc1cc2c(cc1OC)[C@H]1C[C@H](O)[C@@H](CC(C)C)CN1CC2 (single isomer, unassigned) [Isomer B]",Inactivity Duration,[1]; [4],184 ± 31 s
same,Large movements Duration,[1]; [4],99 ± 13 s
same,Large movements Occurence (number),[1]; [4],280 ± 41 number
same,Large movements Speed,[1]; [4],13.0 ± 0.5 cm/s
same,Inactivity Duration,"[1]; DAY 0, before administration",149 ± 27 s
same,Large movements Duration,"[1]; DAY 0, before administration",128 ± 16 s
same,Large movements Occurence (number),"[1]; DAY 0, before administration",309 ± 37 number
same,Large movements Speed,"[1]; DAY 0, before administration",13.2 ± 0.5 cm/s
same,Inactivity Duration,[1]; [5],134 ± 18 s
same,Large movements Duration,[1]; [5],123 ± 14 s
same,Large movements Occurence (number),[1]; [5],322 ± 40 number
same,Large movements Speed,[1]; [5],13.9 ± 0.7 cm/s
same,Inactivity Duration,[1]; DAY 24,67 ± 42 s
same,Large movements Duration,[1]; DAY 24,148 ± 34 s
same,Large movements Occurence (number),[1]; DAY 24,818 ± 168 number
same,Large movements Speed,[1]; DAY 24,11.2 ± 0.9 cm/s
same,inhibitory activity against monoamine oxidase isoform B,[2],no inhibitory activity
same,Measured latencies to fall from Rotarod,"[3]; Day 0, prior to 1st administration",68.4 ± 17.7 s
same,Measured latencies to fall from Rotarod,[3]; Day 1,91.4 ± 18.1 s
same,Measured latencies to fall from Rotarod,[3]; Day 3,59.4 ± 11.2 s
same,Measured latencies to fall from Rotarod,[3]; Day 9,29.0 ± 12.1 s
same,Measured latencies to fall from Rotarod,[3]; Day 17,30.0 ± 11.0 s
same,Measured latencies to fall from Rotarod,[3]; Day 21,22.1 ± 7.3 s
same,Measured latencies to fall from Rotarod,[3]; Day 24,14.8 ± 4.3 s
same,Measured latencies to fall from Rotarod,[3]; Day 27,15.8 ± 5.2 s
same,Measured latencies to fall from Rotarod,[3]; Day 31,7.8 ± 2.4 s
